Results from patent US20230105108A1, “COMPOUNDS FOR THE TREATMENT OF BACTERIAL INFECTIONS AND POTENTIATION OF ANTIBIOTICS” (GEORGIA STATE UNIVERSITY RESEARCH FOUNDATION, INC., priority 2019, published 2023).
Structures can show the parent of a compound that is named as a salt.

What was measured:
[1] = system: mcr-1 over-expressing E. coli strains; assay: microbe, parasite or virus in culture; format: cell-based
[2] = system: E. coli; assay: Lysozyme assay (outer membrane disruption); format: cell-based; settings: 50 μg/ml lysozyme, 25 μg/ml sensitizer, 10 min
Description: Lysozyme assay to evaluate the disruption of Gram-negative bacteria out membrane by bacterial sensitizers. Lysozyme assay was performed based on literature reported method. E. coli was cultured in Mueller Hinton II cation-adjusted broth for overnight, centrifuged at 3000 g for 10 min, washed with HEPES buffer (pH=7.2) and then centrifuged again to obtain bacteria pallet. The pallet was then gently resuspended in HEPES buffer with 5 mM NaCN to obtain an E. coli suspension with OD600 between 0.8˜1.0. On a 96-well plate, each well was supplied with 100 μl lysozyme solution (100 μg/ml) containing 50 or 100 μg/ml bacterial sensitizers in HEPES buffer. To each well was added 100 μl E. coli suspension. The final concentration of lysozyme was 50 μg/ml. The plate was incubated at room temperature for 10 min and the OD600 was recorded. E. coli was also incubated with bacterial sensitizers in the absence of lysozyme to test if bacterial sensitizers would directly induce bacterial lysis. E. coli that was incubated with lysozyme alone or E. coli without any treatment were also used as negative control.

[3] = system: E. coli expressing mcr-1; assay: Ex vivo skin burn infection model, mcr-1 positive E. coli; settings: human skin burn, hypromellose gel; 3‰ (w/w)
Description: To achieve topical application, compounds were formulated as hypromellose gel. […] After that, skin was loaded with hypromellose gel with different antibiotics and cultured at 37° C. for 24 hours. After 24 hours incubation, the skin sample was homogenized and the supernatants were serially diluted and plated on agar plates, from which bacterial counts on the skin was calculated. […] 1‰ polymyxin B hypromellose gel was used as positive control.

[4] = system: NDM-1 expressing E. coli strain; assay: microbe, parasite or virus in culture; format: cell-based
[5] = system: E. coli (ATCC 25922); assay: MIC determination, sensitization fold and FIC index on E. coli; format: cell-based
Summary of the method: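 MICs read by OD600 as >90% growth inhibition after two-fold rifampicin dilutions, 5×10^5 CFU/ml E. coli, 24 h, 37 °C, shaken, cation-adjusted Mueller Hinton II broth.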

[6] = system: A. baumannii (ATCC 17978); assay: MIC, sensitization fold and FIC index on A. baumannii; format: cell-based
[7] = system: MRSA and B. subtilis; assay: Composition of mixed MRSA and B. subtilis under antibiotic pressure; format: cell-based; settings: 8 ng/ml trovafloxacin and 1.5 μg/ml MD-108
Description: (§1) FIG. 11 contains graphs showing that MD-108 can change the composition between MRSA and E. coli (Panel A) or MRSA and B. subtilis (Panel B) when the bacteria strains are under the same antibiotic pressure.
(§2) As a proof of concept, the relative ratio of E. coli and MRSA or B. subtilis and MRSA was measured with and without MD-108 (FIGS. 11A and B). […] When supplied with 1.5 μg/ml MD-108 and 8 ng/ml trovafloxacin, the MRSA inhibition was achieved, leaving E. coli as the dominant species (89% of the bacteria population).

[8] = Cytotoxicity on mammalian cells (CCK-8), NIH3T3; format: cell-based; settings: mouse, NIH3T3 cells, 3T3 cell line
Summary of the method: (§3)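 Cells seeded a day ahead to ~80% confluency, exposed to varied compound concentrations for 24 h at 37° C, 5% CO2. CCK-8 added for a further 2 h and OD 450 nm read; viability expressed as percent of untreated control.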

[9] = system: HEK293 cells; assay: Cytotoxicity on mammalian cells (CCK-8), HEK293; format: cell-based; settings: Homo sapiens, HEK293
Summary of the method: as §3

[10] = Cytotoxicity on mammalian cells (CCK-8), HEK293; format: cell-based; settings: human, HEK293 cells; HEK293 cell line; 24 h
Summary of the method: as §3

[11] = system: B. subtilis; assay: MIC determination and sensitization fold on B. subtilis; format: cell-based; settings: B. subtilis
[12] = Cytotoxicity in H9c2 cells (CCK-8); format: cell-based; settings: rat, H9c2 cells; H9c2 cell line
Summary of the method: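 H9c2 cells were grown in DMEM with 10% FBS, seeded the day before, and exposed to a range of di-amidine concentrations for 24 h at 37 °C, 5% CO2. Viability was read by CCK-8 after 3 h at 37 °C as absorbance at 450 nm.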

[13] = system: MRSA (ATCC 33592); assay: MIC determination and sensitization fold on MRSA; format: cell-based, methicillin-resistant Staphylococcus aureus; settings: MRSA; rifampicin; compound at 3 μM
[14] = system: MRSA and E. coli; assay: Composition of mixed MRSA and E. coli under antibiotic pressure; format: cell-based; settings: 1.5 μg/ml MD-108 and 8 ng/ml trovafloxacin
Description: as §1, §2

[15] = system: M. smegmatis; assay: MIC on mycobacteria; format: cell-based, Mycobacterium smegmatis; settings: Mycolicibacterium smegmatis, read-out: MIC on mycobacteria

Molecule: Polymyxin B
- MIC of AB with 5 μg/ml MD-124 ([1]; mcr-1 over-expression E. coli strain (MIC of polymyxin B 30 μg/ml)): 1 µg/mL
- Sensitization fold with 5 μg/ml MD-124 ([1]; mcr-1 over-expression E. coli strain towards the antibiotic): 30 fold
- MIC of Rif polymyxin B ([1]; strain mcr-1 A): 10 µg/mL
- MIC of Rif polymyxin B ([1]; strain mcr-1 B): 30 µg/mL
- bacterial lysis by lysozyme in the presence of sensitizer [2]: led to bacterial lysis
- effect on bacterial load as compared with vehicle group [3]: only had minor effects
- MIC of AB with 5 μg/ml MD-124 ([4]; NDM-1 expressing E. coli): 0.32 µg/mL
- Sensitization fold with 5 μg/ml MD-124 ([4]; NDM-1 expressing E. coli towards the antibiotic): 8 fold
- MFC of AB only ([4]; NDM-1 expressing E. coli, antibiotic alone): 2.5 µg/mL
- MIC of AB only ([5]; E. coli (wild type), antibiotic alone): 1.2 µg/mL
- Sensitization fold ([5]; E. coli towards the antibiotic, MD-124 5 μg/ml): 32 fold
- MIC of AB with MD-124 ([5]; E. coli, MD-124 concentration 5 μg/ml): 0.04 µg/mL
- MIC of AB with 5 μg/ml MD-124 ([6]; A. baumannii): 0.04 µg/mL
- Sensitization fold with 5 μg/ml MD-124 ([6]; A. baumannii towards the antibiotic): 4 fold
- MFC of AB only ([6]; A. baumannii, antibiotic alone): 1.6 µg/mL

Molecule: Cc1cc(CCc2ccc(C(=N)N)cc2)cc(CCc2ccc(C(=N)N)cc2)c1 [MD-108, 4,4′-((5-methyl-1,3-phenylene)bis(ethane-2,1-diyl))dibenzimidamide dihydrochloride]
- B. subtilis share of the composition [7]: 99.5%
- CC50 at 24 h [8]: 50 µM
- IC50 [9]: 50 µM
- CC50 at 24 h [10]: 50 µM
- Sensitization fold ([11]; erythromycin, compound at 6 μM): 32-fold at 6 μM.
- MIC ([11]; Bacillus subtilis, 24 h, compound alone, read-out: MIC): 25 µM
- Sensitization fold ([5]; 10 μM compound, rifampicin as the antibiotic (Table 6)): 16 fold
- Sensitization fold ([5]; E. coli, rifampicin, compound at 10 μM): 16-fold at 10 μM.
- Sensitization fold ([5]; E. coli, rifampicin, compound at 25 μM): 32-fold at 25 μM;
- MIC ([5]; Escherichia coli, ATCC25922, 24 h): 100 µM
- CC50 at 24 h [12]: 12.5 µM
- Sensitization fold [13]: 16-fold at 3 μM
- E. coli share of the bacteria population [14]: 89%
- MIC [15]: 6 to 12 µM
